Test results from ChEMBL document CHEMBL1201862, “PubChem BioAssay data set” (2004).
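Cells were grown in 96-well plates and exposed to each compound for 48 hours at five concentrations; endpoints were interpolated linearly between bracketing concentrations, or set to the highest concentration if not reached. GI50 is the concentration that inhibits growth by half.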 Active and inactive are the calls of the source. Cut-off read from the data, not from the text of the source: active = GI50 up to about 1.1 µM and inactive = higher.

Tests used:
Assay in all cases: NCI anticancer screen, dose series, 48 h
UACC-257 = tested on: UACC-257
SNB-19 = tested on: SNB-19
SK-MEL-28 = tested on: SK-MEL-28
SR = tested on: SR
UACC-62 = tested on: UACC-62
HL-60 = tested on: HL-60
HOP-92 = tested on: HOP-92
MDA-MB-435 = tested on: MDA-MB-435
RPMI-8226 = tested on: RPMI-8226
U-251 = tested on: U-251
DU-145 = tested on: DU-145
HCT-116 = tested on: HCT-116
COLO 205 = tested on: COLO 205
OVCAR-5 = tested on: OVCAR-5
CAKI-1 = tested on: CAKI-1
SF-295 = tested on: SF-295
NCI-H522 = tested on: NCI-H522
HCT-15 = tested on: HCT-15
BT-549 = tested on: BT-549
NCI/ADR-RES = tested on: NCI/ADR-RES
SK-OV-3 = tested on: SK-OV-3
OVCAR-8 = tested on: OVCAR-8
MDA-MB-231 = tested on: MDA-MB-231
786-0 = tested on: 786-0
ACHN = tested on: ACHN
A498 = tested on: A498
K562 = tested on: K562
HOP-62 = tested on: HOP-62
HCC 2998 = tested on: HCC 2998
LOX IMVI = tested on: LOX IMVI
KM12 = tested on: KM12
OVCAR-3 = tested on: OVCAR-3
SW-620 = tested on: SW-620
SF-539 = tested on: SF-539
SK-MEL-2 = tested on: SK-MEL-2
CCRF-CEM = tested on: CCRF-CEM
MOLT-4 = tested on: MOLT-4
NCI-H460 = tested on: NCI-H460
NCI-H226 = tested on: NCI-H226
Hs-578T = tested on: Hs-578T
Malme-3M = tested on: Malme-3M
SK-MEL-5 = tested on: SK-MEL-5
NCI-H23 = tested on: NCI-H23
MDA-N = tested on: MDA-N
SN12C = tested on: SN12C
OVCAR-4 = tested on: OVCAR-4
UO-31 = tested on: UO-31
SNB-75 = tested on: SNB-75
MCF7 = tested on: MCF7
HT-29 = tested on: HT-29
PC-3 = tested on: PC-3
T47D = tested on: T47D
EKVX = tested on: EKVX
IGROV-1 = tested on: IGROV-1
A549 = tested on: A549
M14 = tested on: M14
RXF 393 = tested on: RXF 393
SF-268 = tested on: SF-268
TK-10 = tested on: TK-10

## CC(=O)c1cccc2c1CC1(C2)Cc2ccc3c(c2C1=O)CCC3 (stereo not drawn)
UACC-257
  GI50: 14.8 µM (inactive)
SNB-19
  GI50: > 100 µM (inactive)
SK-MEL-28
  GI50: 42.1 µM (inactive)
SR
  GI50: 14.8 µM (inactive)
UACC-62
  GI50: 78.5 µM (inactive)
HL-60
  GI50: 3.64 µM (inactive)
HOP-92
  GI50: 12.6 µM (inactive)
MDA-MB-435
  GI50: 32.1 µM (inactive)
RPMI-8226
  GI50: 17.3 µM (inactive)
U-251
  GI50: 47.1 µM (inactive)
DU-145
  GI50: 79.1 µM (inactive)
HCT-116
  GI50: 27.7 µM (inactive)
COLO 205
  GI50: 26.5 µM (inactive)
OVCAR-5
  GI50: 53.6 µM (inactive)
CAKI-1
  GI50: 48 µM (inactive)
SF-295
  GI50: 43.2 µM (inactive)
NCI-H522
  GI50: 17 µM (inactive)
HCT-15
  GI50: 33.6 µM
BT-549
  GI50: 82.2 µM (inactive)
NCI/ADR-RES
  GI50: 12.7 µM (inactive)
SK-OV-3
  GI50: 83.6 µM (inactive)
OVCAR-8
  GI50: 57.1 µM (inactive)
MDA-MB-231
  GI50: 32.6 µM (inactive)
786-0
  GI50: 41.2 µM (inactive)
ACHN
  GI50: 47.9 µM (inactive)
A498
  GI50: > 100 µM (inactive)
K562
  GI50: 21.6 µM (inactive)
HOP-62
  GI50: 54 µM (inactive)
HCC 2998
  GI50: 15 µM (inactive)
LOX IMVI
  GI50: 27.5 µM (inactive)
KM12
  GI50: 29.6 µM (inactive)
OVCAR-3
  GI50: 23.5 µM (inactive)
SW-620
  GI50: 55.2 µM (inactive)
SF-539
  GI50: 82.2 µM (inactive)
SK-MEL-2
  GI50: 26.2 µM (inactive)
CCRF-CEM
  GI50: 34.8 µM (inactive)
MOLT-4
  GI50: 25.3 µM (inactive)
NCI-H460
  GI50: 33.3 µM (inactive)
NCI-H226
  GI50: 23.9 µM (inactive)
Hs-578T
  GI50: 32.7 µM (inactive)
Malme-3M
  GI50: 14.3 µM (inactive)
SK-MEL-5
  GI50: 14 µM (inactive)
NCI-H23
  GI50: 67.8 µM (inactive)
MDA-N
  GI50: 49.1 µM (inactive)
SN12C
  GI50: 35.8 µM (inactive)
OVCAR-4
  GI50: 29.5 µM (inactive)
UO-31
  GI50: 30.3 µM (inactive)
SNB-75
  GI50: 35.9 µM (inactive)
MCF7
  GI50: 9.57 µM (inactive)
HT-29
  GI50: 23.1 µM (inactive)
PC-3
  GI50: 32.5 µM (inactive)
T47D
  GI50: 29.1 µM (inactive)
EKVX
  GI50: 17.9 µM (inactive)
IGROV-1
  GI50: 74 µM (inactive)
A549
  GI50: 23.3 µM (inactive)
M14
  GI50: 46.7 µM (inactive)
RXF 393
  GI50: 33 µM (inactive)
SF-268
  GI50: 40.7 µM (inactive)
TK-10
  GI50: 24.2 µM (inactive)

## O=c1/c(=C/c2ccc([N+](=O)[O-])o2)sc2n1[C@@H](c1ccc3c(c1)OCO3)C=C(c1cc(F)c(Cl)cc1Cl)N=2
UACC-257
  GI50: 17.2 µM (inactive)
SNB-19
  GI50: 20.8 µM (inactive)
SK-MEL-28
  GI50: 22.3 µM (inactive)
SR
  GI50: 3.33 µM (inactive)
UACC-62
  GI50: 15.9 µM (inactive)
HL-60
  GI50: 15.6 µM (inactive)
HOP-92
  GI50: 12.6 µM (inactive)
MDA-MB-435
  GI50: 13.4 µM (inactive)
RPMI-8226
  GI50: 9.31 µM (inactive)
U-251
  GI50: 19.9 µM (inactive)
DU-145
  GI50: 21.6 µM (inactive)
HCT-116
  GI50: 5.11 µM (inactive)
COLO 205
  GI50: 18.7 µM (inactive)
OVCAR-5
  GI50: 21.7 µM (inactive)
CAKI-1
  GI50: 13.7 µM (inactive)
SF-295
  GI50: 31.2 µM (inactive)
NCI-H522
  GI50: 25.8 µM (inactive)
HCT-15
  GI50: 9.59 µM
BT-549
  GI50: 16.8 µM (inactive)
NCI/ADR-RES
  GI50: 34.4 µM (inactive)
SK-OV-3
  GI50: 46.5 µM (inactive)
OVCAR-8
  GI50: 11.9 µM (inactive)
MDA-MB-231
  GI50: 23 µM (inactive)
786-0
  GI50: 9.51 µM (inactive)
ACHN
  GI50: 16.1 µM (inactive)
A498
  GI50: 56 µM (inactive)
K562
  GI50: 5.09 µM (inactive)
HOP-62
  GI50: 22.5 µM (inactive)
HCC 2998
  GI50: 12.9 µM (inactive)
LOX IMVI
  GI50: 17.2 µM (inactive)
KM12
  GI50: 16.6 µM (inactive)
OVCAR-3
  GI50: 16.8 µM (inactive)
SW-620
  GI50: 5.42 µM (inactive)
SF-539
  GI50: 23.8 µM (inactive)
SK-MEL-2
  GI50: 25.1 µM (inactive)
CCRF-CEM
  GI50: 3.24 µM (inactive)
MOLT-4
  GI50: 8.91 µM (inactive)
NCI-H460
  GI50: 17.8 µM (inactive)
NCI-H226
  GI50: 46.7 µM (inactive)
Hs-578T
  GI50: 61 µM (inactive)
Malme-3M
  GI50: 19.7 µM (inactive)
SK-MEL-5
  GI50: 10.3 µM (inactive)
NCI-H23
  GI50: 20.6 µM (inactive)
MDA-N
  GI50: 5.5 µM (inactive)
SN12C
  GI50: 18 µM (inactive)
OVCAR-4
  GI50: 15.7 µM (inactive)
UO-31
  GI50: 16.7 µM (inactive)
SNB-75
  GI50: 17.3 µM (inactive)
MCF7
  GI50: 10 µM (inactive)
HT-29
  GI50: 17.1 µM (inactive)
PC-3
  GI50: 22 µM (inactive)
T47D
  GI50: 17.3 µM (inactive)
EKVX
  GI50: 16.6 µM (inactive)
IGROV-1
  GI50: 16.3 µM (inactive)
A549
  GI50: 16.4 µM (inactive)
M14
  GI50: 13.9 µM (inactive)
RXF 393
  GI50: 16.1 µM (inactive)
SF-268
  GI50: 28.7 µM (inactive)
TK-10
  GI50: 23.3 µM (inactive)
